Results taken from PubChem BioAssay (NCI).
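Each compound was tested at five concentrations against cells in 96-well plates for 48 hours. The concentration for 50% growth inhibition is given as GI50. The concentration for full growth arrest is given as TGI.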 Peptide text beside a SMILES is read from it. * marks the point of attachment. Boc = CC(C)(C)OC(=O)*

Tests used:
Experiment in all cases: NCI anticancer screen, dose series, 48 h
786-0 renal = tested on: 786-0 renal
A498 renal = tested on: A498 renal
A549 NSCLC = tested on: A549 NSCLC
ACHN renal = tested on: ACHN renal
BT-549 breast = tested on: BT-549 breast
CAKI-1 renal = tested on: CAKI-1 renal
CCRF-CEM leukemia = tested on: CCRF-CEM leukemia
COLO 205 colon = tested on: COLO 205 colon
DU-145 prostate = tested on: DU-145 prostate
EKVX NSCLC = tested on: EKVX NSCLC
HCT-116 colon = tested on: HCT-116 colon
HCT-15 colon = tested on: HCT-15 colon
HL-60(TB) leukemia = tested on: HL-60(TB) leukemia
HOP-92 NSCLC = tested on: HOP-92 NSCLC
HS 578T breast = tested on: HS 578T breast
HT29 colon = tested on: HT29 colon
IGROV1 ovarian = tested on: IGROV1 ovarian
K-562 leukemia = tested on: K-562 leukemia
KM12 colon = tested on: KM12 colon
LOX IMVI melanoma = tested on: LOX IMVI melanoma
M14 melanoma = tested on: M14 melanoma
MALME-3M melanoma = tested on: MALME-3M melanoma
MCF7 breast = tested on: MCF7 breast
MDA-MB-231 breast = tested on: MDA-MB-231 breast
MDA-MB-435 = tested on: MDA-MB-435
MDA-N = tested on: MDA-N
MOLT-4 leukemia = tested on: MOLT-4 leukemia
NCI-H226 lung = tested on: NCI-H226 lung
NCI-H23 lung = tested on: NCI-H23 lung
NCI-H522 lung = tested on: NCI-H522 lung
NCI/ADR-RES ovarian = tested on: NCI/ADR-RES ovarian
OVCAR-4 ovarian = tested on: OVCAR-4 ovarian
OVCAR-5 ovarian = tested on: OVCAR-5 ovarian
OVCAR-8 ovarian = tested on: OVCAR-8 ovarian
PC-3 prostate = tested on: PC-3 prostate
RXF 393 renal = tested on: RXF 393 renal
SF-268 CNS = tested on: SF-268 CNS
SF-295 CNS = tested on: SF-295 CNS
SF-539 CNS = tested on: SF-539 CNS
SK-MEL-2 melanoma = tested on: SK-MEL-2 melanoma
SK-MEL-28 melanoma = tested on: SK-MEL-28 melanoma
SK-MEL-5 melanoma = tested on: SK-MEL-5 melanoma
SK-OV-3 ovarian = tested on: SK-OV-3 ovarian
SN12C renal = tested on: SN12C renal
SNB-19 CNS = tested on: SNB-19 CNS
SR leukemia = tested on: SR leukemia
SW-620 colon = tested on: SW-620 colon
T-47D breast = tested on: T-47D breast
TK-10 renal = tested on: TK-10 renal
U251 CNS = tested on: U251 CNS
UACC-257 melanoma = tested on: UACC-257 melanoma
UACC-62 melanoma = tested on: UACC-62 melanoma
UO-31 renal = tested on: UO-31 renal
HCC-2998 colon = tested on: HCC-2998 colon
NCI-H460 lung = tested on: NCI-H460 lung
OVCAR-3 ovarian = tested on: OVCAR-3 ovarian
RPMI-8226 leukemia = tested on: RPMI-8226 leukemia
SNB-75 CNS = tested on: SNB-75 CNS

With `CSCCC(NC(=O)C(CC(C)C)NC(=O)CNC(=O)OC(C)(C)C)C(=O)N(C)C` (stereo not drawn) (Boc-Gly-Leu-Met-NMe2; configuration not given here) the TGI (786-0 renal) was > 100 µM, the TGI (A498 renal) was > 100 µM and the TGI (A549 NSCLC) was > 100 µM. For the same compound, the TGI (ACHN renal) was > 100 µM, the TGI (BT-549 breast) was > 100 µM and the TGI (CAKI-1 renal) was > 100 µM. For the same compound, the TGI (CCRF-CEM leukemia) was > 100 µM, the TGI (COLO 205 colon) was > 100 µM and the TGI (DU-145 prostate) was > 100 µM. The TGI (EKVX NSCLC) was > 100 µM, the TGI (HCT-116 colon) was > 100 µM and the TGI (HCT-15 colon) was > 100 µM. The TGI (HL-60(TB) leukemia) was > 100 µM, the TGI (HOP-92 NSCLC) was > 100 µM and the TGI (HS 578T breast) was > 100 µM. The TGI (HT29 colon) was > 100 µM, the TGI (IGROV1 ovarian) was > 100 µM and the TGI (K-562 leukemia) was > 100 µM. The TGI (KM12 colon) was > 100 µM, the TGI (LOX IMVI melanoma) was > 100 µM and the TGI (M14 melanoma) was > 100 µM. The TGI (MALME-3M melanoma) was > 100 µM, the TGI (MCF7 breast) was > 100 µM and the TGI (MDA-MB-231 breast) was > 100 µM. For the same compound, the TGI (MDA-MB-435) was > 100 µM, the TGI (MDA-N) was > 100 µM and the TGI (MOLT-4 leukemia) was > 100 µM. The TGI (NCI-H226 lung) was > 100 µM, the TGI (NCI-H23 lung) was > 100 µM and the TGI (NCI-H522 lung) was > 100 µM. For the same compound, the TGI (NCI/ADR-RES ovarian) was > 100 µM, the TGI (OVCAR-4 ovarian) was > 100 µM and the TGI (OVCAR-5 ovarian) was > 100 µM. The TGI (OVCAR-8 ovarian) was > 100 µM, the TGI (PC-3 prostate) was > 100 µM and the TGI (RXF 393 renal) was > 100 µM. The TGI (SF-268 CNS) was > 100 µM, the TGI (SF-295 CNS) was > 100 µM and the TGI (SF-539 CNS) was > 100 µM. The TGI (SK-MEL-2 melanoma) was > 100 µM, the TGI (SK-MEL-28 melanoma) was > 100 µM and the TGI (SK-MEL-5 melanoma) was > 100 µM. For the same compound, the TGI (SK-OV-3 ovarian) was > 100 µM, the TGI (SN12C renal) was > 100 µM and the TGI (SNB-19 CNS) was > 100 µM. For the same compound, the TGI (SR leukemia) was > 100 µM, the TGI (SW-620 colon) was > 100 µM and the TGI (T-47D breast) was > 100 µM. The TGI (TK-10 renal) was > 100 µM, the TGI (U251 CNS) was > 100 µM and the TGI (UACC-257 melanoma) was > 100 µM. For the same compound, the TGI (UACC-62 melanoma) was > 100 µM and the TGI (UO-31 renal) was > 100 µM.
`C=C(C)[C@]12CC(C)C34OC(/C=C\C=C\CCCCCCCCC)(O[C@@H]1[C@@H]3[C@@H]1O[C@]1(CO)[C@@H](O)[C@]1(O)C(=O)C(C)=C[C@@H]41)O2` (stereo not given in full) was tested, and the TGI (786-0 renal) was 21.5 µM, the GI50 (A549 NSCLC) was < 0.1 nM and the TGI (A549 NSCLC) was 20.9 µM. The TGI (ACHN renal) was 22.8 µM, the TGI (BT-549 breast) was 18.5 µM and the TGI (CCRF-CEM leukemia) was > 26.1 µM. The TGI (COLO 205 colon) was 14.1 µM, the TGI (DU-145 prostate) was 22.1 µM and the TGI (EKVX NSCLC) was 27.8 µM. The GI50 (HCC-2998 colon) was < 0.1 nM, the TGI (HCT-116 colon) was 21 µM and the TGI (HCT-15 colon) was 25.4 µM. The GI50 (HL-60(TB) leukemia) was < 0.1 nM, the TGI (HL-60(TB) leukemia) was > 20.5 µM and the TGI (HOP-92 NSCLC) was 22.4 µM. For the same compound, the TGI (HS 578T breast) was 3.97 µM, the TGI (HT29 colon) was 8.26 µM and the TGI (IGROV1 ovarian) was 30 µM. For the same compound, the GI50 (K-562 leukemia) was < 0.1 nM, the TGI (K-562 leukemia) was > 35 µM and the TGI (KM12 colon) was 21.7 µM. It also gave a GI50 (LOX IMVI melanoma) of 1480 nM, a TGI (LOX IMVI melanoma) of 3.88 µM and a TGI (M14 melanoma) of 27.4 µM. For the same compound, the GI50 (MALME-3M melanoma) was < 0.1 nM, the TGI (MALME-3M melanoma) was 23.1 µM and the TGI (MCF7 breast) was 23.4 µM. For the same compound, the TGI (MDA-MB-231 breast) was 15.4 µM, the GI50 (MDA-MB-435) was < 0.1 nM and the TGI (MDA-MB-435) was 21.5 µM. For the same compound, the GI50 (MDA-N) was 0.167 nM, the TGI (MDA-N) was 19 µM and the TGI (NCI-H226 lung) was 33.2 µM. For the same compound, the TGI (NCI-H23 lung) was 29.2 µM, the GI50 (NCI-H460 lung) was < 0.1 nM and the TGI (NCI-H460 lung) was 16 µM. The TGI (NCI-H522 lung) was 30.7 µM, the TGI (NCI/ADR-RES ovarian) was 45.2 µM and the TGI (OVCAR-3 ovarian) was 16.3 µM. It also gave a TGI (OVCAR-4 ovarian) of 22.6 µM, a TGI (OVCAR-5 ovarian) of 41.2 µM and a TGI (OVCAR-8 ovarian) of 31.8 µM. The GI50 (PC-3 prostate) was < 0.1 nM, the TGI (PC-3 prostate) was 12.9 µM and the TGI (RPMI-8226 leukemia) was 17 µM. For the same compound, the TGI (RXF 393 renal) was 28.6 µM, the TGI (SF-268 CNS) was 28.5 µM and the TGI (SF-539 CNS) was 17.2 µM. The TGI (SK-MEL-28 melanoma) was 25.6 µM, the GI50 (SK-MEL-5 melanoma) was 0.417 nM and the TGI (SK-MEL-5 melanoma) was 24.3 µM. For the same compound, the TGI (SK-OV-3 ovarian) was 35.1 µM, the TGI (SN12C renal) was 7.86 µM and the TGI (SNB-19 CNS) was 30.5 µM. It also gave a TGI (SNB-75 CNS) of 22 µM, a TGI (SR leukemia) of 15.8 µM and a TGI (T-47D breast) of 26.5 µM. The TGI (TK-10 renal) was 19.1 µM, the TGI (U251 CNS) was 49.9 µM and the TGI (UACC-257 melanoma) was 28.5 µM. The TGI (UACC-62 melanoma) was 24 µM and the TGI (UO-31 renal) was 24.8 µM.
